The values below come from patent US8226989B2, “Anti-adipocyte fatty acid-binding protein (AP2), anti-flap and anti-CySLT1 receptor herbal compositions” (Laila Impex, priority 2008, dated 2012).

This experiment relates to adipocyte fatty acid-binding protein aP2. The experiment can be described thus: aP2 protein expression in LPS induced THP-1 monocyte-macrophage cells (immuno-western blot). The note with it: THP-1 cells pre-treated 2 h, then LPS; extracts 5 or 10 μg/ml, 5-Loxin 5 μg/ml, montelukast 1 μM, NDGA 10 μM. The experiment is classed as cell-based, human. A general note: Immunoblotting shows a protein as a band on a membrane.

Description: In this experiment, THP-1 human monocyte-macrophage cells were pre-treated with 5 or 10 μg/ml of each ingredient for 2 h and thereafter printed with LPS to induce the inflammatory response. The cellular proteins were extracted by cell lysis buffer and subjected to Immuno-Western blot to detect the modulation of expression of aP2 protein.
The cellular proteins were extracted by cell lysis buffer and subjected to immuno-western blot to detect the modulation of expression of aP2 protein.
Similar experiment was also conducted on Aegle marmelos, Zingiber officinale and G. mangostana extracts.

Regarding `CC(Cc1ccc(O)c(O)c1)C(C)Cc1ccc(O)c(O)c1` (stereo not shown) [NDGA, Nordihydroguaiaretic Acid], the “inhibition of LPS induced aP2 protein expression” value was “significantly reduced”.
